# Patent US11739098B2 (BRISTOL-MYERS SQUIBB COMPANY, priority 2017, dated 2023)
# Assays:
# Type in all cases: cell-based
# human TLR8 = target: T1, human TLR8 (Homo sapiens, UniProt Q9NR97); assay: TLR8 inhibition reporter assay (HEK-Blue cells, SEAP reporter, R848 stimulation); settings: HEK-Blue cells overexpressing human TLR8, SEAP reporter, R848 15.9 μM
# T1 construct: host or cells: HEK-Blue cells (HEK293-derived reporter line)
# T1 sequence (Q9NR97 27-1041): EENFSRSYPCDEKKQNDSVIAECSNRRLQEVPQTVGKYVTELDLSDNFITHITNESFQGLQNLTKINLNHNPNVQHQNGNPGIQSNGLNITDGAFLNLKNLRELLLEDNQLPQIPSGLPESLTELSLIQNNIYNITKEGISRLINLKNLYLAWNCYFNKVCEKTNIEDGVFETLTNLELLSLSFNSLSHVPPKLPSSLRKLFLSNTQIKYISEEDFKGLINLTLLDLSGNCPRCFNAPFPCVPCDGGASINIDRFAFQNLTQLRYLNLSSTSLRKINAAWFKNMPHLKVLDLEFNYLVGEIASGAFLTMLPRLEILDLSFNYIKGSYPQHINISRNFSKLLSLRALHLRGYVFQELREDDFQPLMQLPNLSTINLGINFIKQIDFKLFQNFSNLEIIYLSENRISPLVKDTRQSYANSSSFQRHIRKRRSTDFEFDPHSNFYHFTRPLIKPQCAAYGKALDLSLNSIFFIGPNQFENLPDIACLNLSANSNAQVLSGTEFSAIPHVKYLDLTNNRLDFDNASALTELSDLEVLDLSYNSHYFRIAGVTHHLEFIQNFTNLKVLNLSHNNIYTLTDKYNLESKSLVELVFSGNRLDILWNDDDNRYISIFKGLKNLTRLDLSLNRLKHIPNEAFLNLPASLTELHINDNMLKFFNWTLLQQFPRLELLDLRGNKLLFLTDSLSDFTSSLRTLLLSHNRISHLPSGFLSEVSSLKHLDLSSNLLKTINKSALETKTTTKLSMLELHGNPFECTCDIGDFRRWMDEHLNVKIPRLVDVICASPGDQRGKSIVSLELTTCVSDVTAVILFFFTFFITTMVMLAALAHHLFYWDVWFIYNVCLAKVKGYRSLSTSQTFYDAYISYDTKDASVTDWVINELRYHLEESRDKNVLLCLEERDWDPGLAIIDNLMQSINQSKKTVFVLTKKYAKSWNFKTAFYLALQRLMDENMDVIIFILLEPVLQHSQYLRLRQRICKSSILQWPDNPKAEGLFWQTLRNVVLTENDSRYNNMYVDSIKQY
# How it was run: (§1)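 Percent inhibition of agonist-induced SEAP secretion in HEK-Blue cells after 22 h at 37 °C. Stimuli: 7.5 μM gardiquimod, 15.9 μM R848, 5 nM ODN2006 for TLR7, TLR8 and TLR9, added after 30 min compound exposure over a 0.05 nM–50 μM range.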
# human TLR9 = target: T2, human TLR9 (Homo sapiens, UniProt Q9NR96); assay: TLR9 inhibition reporter assay (HEK-Blue cells, SEAP reporter, ODN2006 stimulation); settings: HEK-Blue cells overexpressing human TLR9, SEAP reporter, ODN2006 5 nM
# T2 construct: host or cells: HEK-Blue cells (HEK293-derived reporter line)
# T2 sequence (Q9NR96 26-1032): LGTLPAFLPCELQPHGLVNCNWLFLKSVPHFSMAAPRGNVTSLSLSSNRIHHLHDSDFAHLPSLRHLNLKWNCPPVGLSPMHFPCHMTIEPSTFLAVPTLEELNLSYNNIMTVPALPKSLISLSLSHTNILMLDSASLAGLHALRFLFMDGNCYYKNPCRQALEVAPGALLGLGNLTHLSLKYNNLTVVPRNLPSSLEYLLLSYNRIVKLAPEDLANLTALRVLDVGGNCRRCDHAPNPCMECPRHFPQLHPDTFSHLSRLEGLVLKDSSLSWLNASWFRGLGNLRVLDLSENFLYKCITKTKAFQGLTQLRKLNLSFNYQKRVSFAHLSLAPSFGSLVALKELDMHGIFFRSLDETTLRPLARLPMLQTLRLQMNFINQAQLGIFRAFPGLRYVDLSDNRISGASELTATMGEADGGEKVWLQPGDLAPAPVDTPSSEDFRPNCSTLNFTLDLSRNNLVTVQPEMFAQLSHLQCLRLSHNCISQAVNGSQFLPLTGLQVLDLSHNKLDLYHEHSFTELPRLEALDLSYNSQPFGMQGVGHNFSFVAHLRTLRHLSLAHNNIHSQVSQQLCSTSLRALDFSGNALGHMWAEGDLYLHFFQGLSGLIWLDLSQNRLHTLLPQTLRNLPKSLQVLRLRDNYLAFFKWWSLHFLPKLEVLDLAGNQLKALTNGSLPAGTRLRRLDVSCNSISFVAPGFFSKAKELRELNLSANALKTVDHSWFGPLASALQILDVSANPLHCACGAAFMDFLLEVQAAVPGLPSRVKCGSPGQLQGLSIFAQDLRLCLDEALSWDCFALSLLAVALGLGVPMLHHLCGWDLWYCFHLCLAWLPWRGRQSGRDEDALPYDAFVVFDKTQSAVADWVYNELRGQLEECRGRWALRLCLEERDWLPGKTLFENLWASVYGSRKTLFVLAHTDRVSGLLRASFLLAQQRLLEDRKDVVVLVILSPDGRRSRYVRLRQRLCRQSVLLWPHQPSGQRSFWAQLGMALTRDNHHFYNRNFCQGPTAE
# How it was run: as §1
# human TLR7 = target: T3, human TLR7 (Homo sapiens, UniProt Q9NYK1); assay: TLR7 inhibition reporter assay (HEK-Blue cells, SEAP reporter, gardiquimod stimulation); settings: HEK-Blue cells overexpressing human TLR7, SEAP reporter, gardiquimod 7.5 μM
# T3 construct: host or cells: HEK-Blue cells (HEK293-derived reporter line)
# T3 sequence (Q9NYK1 27-1049): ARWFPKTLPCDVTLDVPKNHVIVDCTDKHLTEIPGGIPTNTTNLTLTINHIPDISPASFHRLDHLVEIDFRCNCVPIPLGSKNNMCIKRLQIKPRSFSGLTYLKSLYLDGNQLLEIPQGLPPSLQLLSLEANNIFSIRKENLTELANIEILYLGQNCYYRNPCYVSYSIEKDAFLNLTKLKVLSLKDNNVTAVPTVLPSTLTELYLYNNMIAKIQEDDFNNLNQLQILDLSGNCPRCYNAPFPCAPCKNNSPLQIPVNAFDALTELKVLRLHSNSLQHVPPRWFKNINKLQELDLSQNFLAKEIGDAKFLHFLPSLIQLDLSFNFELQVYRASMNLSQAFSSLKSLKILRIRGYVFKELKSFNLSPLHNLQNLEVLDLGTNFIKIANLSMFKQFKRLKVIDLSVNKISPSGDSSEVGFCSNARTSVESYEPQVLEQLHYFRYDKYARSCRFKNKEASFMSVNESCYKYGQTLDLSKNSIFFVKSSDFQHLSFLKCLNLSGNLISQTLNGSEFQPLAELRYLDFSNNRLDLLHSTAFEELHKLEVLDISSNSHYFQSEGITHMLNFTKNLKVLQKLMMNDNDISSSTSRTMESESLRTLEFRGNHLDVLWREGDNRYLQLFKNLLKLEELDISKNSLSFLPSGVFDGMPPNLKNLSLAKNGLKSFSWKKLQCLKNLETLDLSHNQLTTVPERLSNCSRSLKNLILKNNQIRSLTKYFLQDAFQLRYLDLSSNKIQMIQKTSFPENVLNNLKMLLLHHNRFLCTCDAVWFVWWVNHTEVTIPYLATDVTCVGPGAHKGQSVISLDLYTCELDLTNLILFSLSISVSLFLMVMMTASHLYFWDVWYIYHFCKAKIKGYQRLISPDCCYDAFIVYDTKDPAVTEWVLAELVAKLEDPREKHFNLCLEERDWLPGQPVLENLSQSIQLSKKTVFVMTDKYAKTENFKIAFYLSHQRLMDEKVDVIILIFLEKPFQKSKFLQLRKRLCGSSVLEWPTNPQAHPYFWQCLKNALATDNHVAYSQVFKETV
# How it was run: as §1
IC50 (human TLR8),IC50 (human TLR9),IC50 (human TLR7),SMILES
0.1 to 1 µM,1 to 50 µM,0.1 to 1 µM,"CCc1c(-c2ccnc3cnn(C)c23)[nH]c2ccc(C3CCNCC3)cc12 [Example 41, 7-(3-ethyl-5-(piperidin-4-yl)-1H-indol-2-yl)-1-methyl-1H-pyrazolo[4,3-b]pyridine]"
0.1 to 1 µM,1 to 50 µM,< 0.1 µM,"Cc1cc(-c2[nH]c3ccc(C4CCNCC4)cc3c2C(C)C)cn2c(C(N)=O)cnc12 [Example 261, 6-(3-isopropyl-5-(piperidin-4-yl)-1H-indol-2-yl)-8-methylimidazo[1,2-a]pyridine-3-carboxamide]"
< 0.1 µM,0.1 to 1 µM,< 0.1 µM,"CNCC(=O)N1CCC(c2ccc3[nH]c(-c4cc(C)n5cncc5c4)c(C(C)C)c3c2)CC1 [Example 530, 1-(4-(3-isopropyl-2-(5-methylimidazo[1,5-a]pyridin-7-yl)-1H-indol-5-yl)piperidin-1-yl)-2-(methylamino)ethan-1-one]"
< 0.1 µM,1 to 50 µM,< 0.1 µM,"Cc1cc(-c2[nH]c3ccc(C4CCN(C5CCS(=O)(=O)CC5)CC4)cc3c2C(C)C)cc2cnnn12 [Example 794, 4-(4-(3-isopropyl-2-(7-methyl-[1,2,3]triazolo[1,5-a]pyridin-5-yl)-1H-indol-5-yl)piperidin-1-yl)tetrahydro-2H-thiopyran 1,1-dioxide]"
< 0.1 µM,1 to 50 µM,< 0.1 µM,"CC(C)c1c(-c2cn(C)c3ncccc23)[nH]c2ccc(C3CCN(C4CCS(=O)(=O)CC4)CC3)cc12 [Example 784, 4-(4-(3-isopropyl-2-(1-methyl-1H-pyrrolo[2,3-b]pyridin-3-yl)-1H-indol-5-yl)piperidin-1-yl)tetrahydro-2H-thiopyran 1,1-dioxide]"
< 0.1 µM,1 to 50 µM,< 0.1 µM,"CCc1c(-c2c[nH]c3ncncc23)[nH]c2ccc(C3CCNCC3)cc12 [Example 241, 5-(3-ethyl-5-(piperidin-4-yl)-1H-indol-2-yl)-7H-pyrrolo[2,3-d]pyrimidine]"
1 to 50 µM,0.1 to 1 µM,< 0.1 µM,"CC(C)c1c(-c2cc(C(C)(C)O)c3nccn3c2)[nH]c2ccc(C3CCN(C(=O)CN(C)C)CC3)cc12 [Example 493, 2-(dimethylamino)-1-(4-(2-(8-(2-hydroxypropan-2-yl)imidazo[1,2-a]pyridin-6-yl)-3-isopropyl-1H-indol-5-yl)piperidin-1-yl) ethan-1-one]"
< 0.1 µM,1 to 50 µM,< 0.1 µM,"Cc1cc(-c2[nH]c3ccc(C4CCN(C(=O)CN(C)C)CC4)cc3c2C(C)C)nn2ncnc12 [Example 454, 2-(dimethylamino)-1-(4-(3-isopropyl-2-(8-methyl-[1,2,4]triazolo[1,5-b]pyridazin-6-yl)-1H-indol-5-yl)piperidin-1-yl)ethan-1-one]"
< 0.1 µM,1 to 50 µM,< 0.1 µM,"CNC(=O)CN1CCC(c2ccc3[nH]c(-c4cc(C)c5nnnn5c4)c(C(C)C)c3c2)CC1 [Example 312, 2-(4-(3-isopropyl-2-(8-methyltetrazolo[1,5-a]pyridin-6-yl)-1H-indol-5-yl)piperidin-1-yl)-N-methylacetamide]"
0.1 to 1 µM,1 to 50 µM,< 0.1 µM,"CC(C)c1c(-c2ccc3nccn3c2)[nH]c2ccc(C3CCN(C(=O)[C@H]4CCCNC4)CC3)cc12 [Example 640, (S)-(4-(2-(imidazo[1,2-a]pyridin-6-yl)-3-isopropyl-1H-indol-5-yl)piperidin-1-yl)(piperidin-3-yl)methanone]"
0.1 to 1 µM,0.1 to 1 µM,< 0.1 µM,"Cc1cn2cc(-c3[nH]c4ccc(C5CCNCC5)cc4c3C(C)C)c(C)cc2n1 [Example 122, 6-(3-isopropyl-5-(piperidin-4-yl)-1H-indol-2-yl)-2,7-dimethylimidazo[1,2-a]pyridine]"
< 0.1 µM,0.1 to 1 µM,< 0.1 µM,"Cc1cc2nccn2cc1-c1[nH]c2ccc(C3CCN(CCCN(C)C)CC3)cc2c1C(C)C [Example 856, 3-(4-(3-isopropyl-2-(7-methylimidazo[1,2-a]pyridin-6-yl)-1H-indol-5-yl)piperidin-1-yl)-N,N-dimethylpropan-1-amine]"
1 to 50 µM,0.1 to 1 µM,1 to 50 µM,"CCc1c(-c2ccn3ccnc3c2)[nH]c2ccc(C3CCNCC3)cc12 [Example 202, 7-(3-ethyl-5-(piperidin-4-yl)-1H-indol-2-yl)imidazo[1,2-a]pyridine]"
0.1 to 1 µM,1 to 50 µM,0.1 to 1 µM,"CC(C)c1c(-c2ccnc3[nH]ncc23)[nH]c2ccc(C3CCN(C(=O)c4cn[nH]c4)CC3)cc12 [Example 610, (4-(3-isopropyl-2-(1H-pyrazolo[3,4-b]pyridin-4-yl)-1H-indol-5-yl)piperidin-1-yl)(1H-pyrazol-4-yl)methanone]"
